Assays:
PizD = biological target: PizD; parameters: method as in PMID 26055114; conditions: lower end of reported range; cited from earlier work
RavS^ΔTrM = biological target: T1, RavS^ΔTrM (Xanthomonas campestris pv. campestris, UniProt Q8P9A6); assay: microscale thermophoresis (MST) binding; conditions: 20 nM fluorescein-labelled nucleotide, read-out: dissociation constant (Kd)
T1 sequence (Q8P9A6 47-697): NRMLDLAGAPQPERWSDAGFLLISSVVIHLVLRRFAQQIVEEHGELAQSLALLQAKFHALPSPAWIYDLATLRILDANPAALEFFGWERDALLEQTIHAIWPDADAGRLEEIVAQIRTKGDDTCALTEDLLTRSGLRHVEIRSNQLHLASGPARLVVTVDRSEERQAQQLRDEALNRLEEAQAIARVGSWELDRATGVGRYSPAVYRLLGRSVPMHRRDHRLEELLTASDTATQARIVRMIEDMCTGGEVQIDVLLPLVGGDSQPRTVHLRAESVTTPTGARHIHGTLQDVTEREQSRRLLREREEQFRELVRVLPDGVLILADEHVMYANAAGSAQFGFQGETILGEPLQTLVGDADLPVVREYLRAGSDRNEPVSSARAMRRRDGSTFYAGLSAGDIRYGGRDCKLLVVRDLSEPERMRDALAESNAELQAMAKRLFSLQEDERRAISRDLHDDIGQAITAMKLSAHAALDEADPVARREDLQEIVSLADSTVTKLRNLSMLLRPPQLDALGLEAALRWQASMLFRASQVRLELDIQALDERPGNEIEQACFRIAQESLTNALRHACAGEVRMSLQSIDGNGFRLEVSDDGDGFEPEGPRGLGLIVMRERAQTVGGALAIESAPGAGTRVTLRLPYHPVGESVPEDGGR
Method: (a) c-di-GMP enhances RavS-RavR phosphotransfer in vitro. A total of 5 μM RavS^ΔN was autophosphorylated for 15 min by the addition of 10 μCi [γ-^32P]ATP. A total of 15 μM RavR^ΔEAL or RavR^ΔEAL(D496A) was added and incubated for 30 min at 25°C. A total of 100 μM c-di-GMP was added if necessary. The reactions were terminated with 5× SDS loading buffer before autoradiography. The experiment was repeated three times. (b) Time course analyses of the impact of c-di-GMP on the velocity of RavS-RavR phosphotransfer. The autophosphorylation and phosphotransfer reactions were set as mentioned in (a). Various concentrations of c-di-GMP were added to the reactions and isotopic signals (band intensities) of RavS~P were measured after autoradiography. (c–d) c-di-GMP triggered an increase in RavS-RavR phosphotransfer in a dose-dependent manner. (c) Various concentrations of c-di-GMP (0, 5, 10, 15, 30, 50, 75 and 100 μM) were added to the RavS-RavR phosphotransfer reactions. (d) The phosphorylated level of RavS^ΔN~P was quantified by ImageJ and the EC50 value was estimated by Origin 8.5 software. In (b) and (d), the intensity of each data point is the average from three experimental repeats. (e) c-di-GMP triggered increase in RavS-RavR phosphotransfer is highly specific. […] The interaction between RavS^ΔTrM and various nucleotides, including fl-c-di-GMP, fl-cGMP and fl-c-di-AMP, were measured by microscale thermophoresis (MST). A total of 20 nM fluorescein-labelled nucleotides and increasing concentrations of proteins were incubated and measured by MST. The dissociation constant (Kd) was quantified to estimate the binding affinity. […]
The interaction between c-di-GMP nucleotides and various proteins was measured by using MST with a fluorescein-labelled c-di-GMP (2′-Fluo-AHC-c-di-GMP, abbreviated as fl-c-di-GMP; 2′-Fluo-AHC-c-di-AMP, fl-c-di-AMP; 2′-Fluo-AHC-cGMP, fl-cGMP; Biolog, Germany). These chemicals contain carboxyfluorescein that has excitation and emission wavelengths of 497 nm and 520 nm, respectively, which can be detected directly by a MST instrument. […]

SMILES	Kd (PizD) [µM]	Kd (RavS^ΔTrM) [µM]
Nc1nc2c(ncn2[C@@H]2O[C@@H]3COP(=O)(O)O[C@H]4[C@@H](O)[C@H](n5cnc6c(=O)[nH]c(N)nc65)O[C@@H]4COP(=O)(O)O[C@H]3[C@H]2O)c(=O)[nH]1 [c-di-GMP, Cyclic di-GMP]	0.1	
Nc1nc2c(ncn2[C@@H]2O[C@@H]3COP(=O)(O)O[C@H]4[C@@H](OC(=O)NCCCCCCNC(=O)c5ccc6c(c5)C(=O)OC65c6ccc(O)cc6Oc6cc(O)ccc65)[C@H](n5cnc6c(=O)[nH]c(N)nc65)O[C@@H]4COP(=O)(O)O[C@H]3[C@H]2O)c(=O)[nH]1 [fl-c-di-GMP, 2′-Fluo-AHC-c-di-GMP]		6.06 ± 0.92

— PMC6707612, “Cyclic-di-GMP binds to histidine kinase RavS to control RavS-RavR phosphotransfer and regulates the bacterial lifestyle transition between virulence and swimming” (PLoS Pathogens, 2019)
